According to ChEMBL document CHEMBL4004825 (J Med Chem, 2017):

What was measured:
[1] = Stability in human liver microsomes; format: ADME, microsome; conditions: read-out: Stability
[2] = Stability in rat liver microsomes; format: ADME, microsome; conditions: read-out: Stability
[3] = Permeability in RRCK cells; format: ADME, cell-based, Canis lupus familiaris, MDCKII-LE; conditions: dog, MDCK; read-out: permeability
[4] = Half-life in Sprague-Dawley rat blood at 1 uM by LC-MS/MS analysis; format: ADME, tissue-based
[5] = Volume of distribution at steady state in mouse; format: ADME, organism-based; conditions: in vivo, read-out: Vdss
[6] = Volume of distribution at steady state in rat; format: ADME; conditions: in vivo, read-out: Vdss
[7] = Volume of distribution at steady state in monkey; format: ADME, Macaca mulatta; conditions: rhesus monkey, in vivo; read-out: Vdss
[8] = Unbound intrinsic clearance in mouse hepatocytes assessed per million cells; format: ADME, cell-based, Hepatocyte
[9] = Unbound intrinsic clearance in rat hepatocytes assessed per million cells; format: ADME, cell-based, Hepatocyte
[10] = Unbound intrinsic clearance in monkey hepatocytes assessed per million cells; format: ADME, cell-based, Macaca mulatta, Hepatocyte; conditions: rhesus monkey
[11] = Unbound intrinsic clearance in dog hepatocytes assessed per million cells; format: ADME, cell-based, Canis lupus familiaris, Hepatocyte
[12] = Unbound intrinsic clearance in human hepatocytes assessed per million cells; format: ADME, cell-based, Hepatocyte
[13] = Half-life in rat blood; format: ADME, tissue-based
[14] = Half-life in monkey blood; format: ADME, tissue-based, Macaca mulatta; conditions: rhesus monkey
[15] = Blood clearance in mouse; format: ADME, organism-based; conditions: whole blood
[16] = Blood clearance in rat; format: ADME; conditions: whole blood
[17] = Blood clearance in monkey; format: ADME, Macaca mulatta; conditions: rhesus monkey, whole blood
[18] = Blood clearance in dog; format: ADME, Canis lupus familiaris; conditions: whole blood
[19] = Oral bioavailability in mouse; format: ADME, organism-based; conditions: in vivo
[20] = Oral bioavailability in rat; format: ADME, organism-based; conditions: in vivo
[21] = Oral bioavailability in monkey; format: ADME, organism-based, Macaca mulatta; conditions: rhesus monkey, in vivo
[22] = Oral bioavailability in dog; format: ADME, organism-based, Canis lupus familiaris; conditions: in vivo
[23] = Aqueous solubility of the compound; format: physicochemical
[24] = target: T1, Tyrosine-protein kinase TXK (Homo sapiens, UniProt P42681); assay: Inhibition of recombinant human N-terminal GST-tagged TXK using GEPLYWSFPAKKK as substrate measured every 60 secs for 1 hr by PK/LDH coupled spectrophotometric assay
T1 sequence (P42681 whole entry): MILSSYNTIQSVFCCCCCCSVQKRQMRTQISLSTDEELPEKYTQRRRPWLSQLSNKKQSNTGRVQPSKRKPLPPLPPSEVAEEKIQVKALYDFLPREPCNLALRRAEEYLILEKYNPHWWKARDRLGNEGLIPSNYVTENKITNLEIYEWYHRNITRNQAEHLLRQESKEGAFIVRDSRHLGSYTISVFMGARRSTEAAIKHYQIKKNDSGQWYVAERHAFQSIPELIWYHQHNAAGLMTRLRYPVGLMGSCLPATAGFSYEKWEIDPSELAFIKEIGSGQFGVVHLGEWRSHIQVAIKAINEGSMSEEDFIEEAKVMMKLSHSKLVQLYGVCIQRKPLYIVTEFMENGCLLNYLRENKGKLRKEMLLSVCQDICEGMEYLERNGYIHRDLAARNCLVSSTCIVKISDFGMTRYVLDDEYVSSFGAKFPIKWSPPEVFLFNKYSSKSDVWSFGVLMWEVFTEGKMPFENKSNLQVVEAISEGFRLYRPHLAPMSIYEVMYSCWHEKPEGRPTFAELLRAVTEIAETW

[25] = target: T2, Tyrosine-protein kinase Tec (Homo sapiens, UniProt P42680); assay: Inhibition of full length human His-tagged TEC by KT178 probe based TR-FRET assay
T2 sequence (P42680 whole entry): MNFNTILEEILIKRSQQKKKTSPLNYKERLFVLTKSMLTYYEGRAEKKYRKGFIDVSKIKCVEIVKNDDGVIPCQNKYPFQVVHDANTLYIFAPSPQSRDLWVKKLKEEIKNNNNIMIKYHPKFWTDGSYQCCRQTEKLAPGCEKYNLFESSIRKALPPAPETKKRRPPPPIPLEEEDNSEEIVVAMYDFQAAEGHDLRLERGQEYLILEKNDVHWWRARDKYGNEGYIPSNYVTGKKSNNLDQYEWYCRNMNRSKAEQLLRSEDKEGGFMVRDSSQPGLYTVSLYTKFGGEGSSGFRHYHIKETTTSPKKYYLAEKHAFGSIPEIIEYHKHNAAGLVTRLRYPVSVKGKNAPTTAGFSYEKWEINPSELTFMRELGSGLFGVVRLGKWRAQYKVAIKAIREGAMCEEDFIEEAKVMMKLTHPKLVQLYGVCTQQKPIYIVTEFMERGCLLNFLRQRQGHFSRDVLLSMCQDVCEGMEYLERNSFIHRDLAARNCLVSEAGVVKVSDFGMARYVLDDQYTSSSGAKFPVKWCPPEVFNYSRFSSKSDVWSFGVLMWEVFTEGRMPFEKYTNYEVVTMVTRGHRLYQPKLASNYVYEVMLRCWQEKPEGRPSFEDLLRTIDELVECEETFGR

[26] = target: T3, Tyrosine-protein kinase Blk (Homo sapiens, UniProt P51451); assay: Inhibition of full length recombinant human His-tagged cytoplasmic BLK expressed in baculovirus expression system by KT236 probe based TR-FRET assay
[27] = target: T3, Tyrosine-protein kinase Blk; assay: Inhibition of full length recombinant human His-tagged cytoplasmic BLK expressed in baculovirus expression system in presence of 1 mM ATP by KT236 probe based TR-FRET assay
[28] = target: Epidermal growth factor receptor (Homo sapiens, UniProt P00533); assay: Inhibition of N-terminal GST-tagged human EGFR cytoplasmic domain expressed in baculovirus infected Sf21 insect cells in presence of 1 mM ATP
[29] = target: Receptor tyrosine-protein kinase erbB-2 (Homo sapiens, UniProt P04626); assay: Inhibition of human N-terminal His-tagged HER2 expressed in baculovirus expression system in presence of 1 mM ATP
[30] = target: T4, Dual specificity mitogen-activated protein kinase kinase 7 (Homo sapiens, UniProt O14733); assay: Inhibition of human N-terminal GST-tagged full length MAP2K7 expressed in baculovirus infected Sf21 insect cells in presence of 1 mM ATP
T4 sequence (O14733 whole entry): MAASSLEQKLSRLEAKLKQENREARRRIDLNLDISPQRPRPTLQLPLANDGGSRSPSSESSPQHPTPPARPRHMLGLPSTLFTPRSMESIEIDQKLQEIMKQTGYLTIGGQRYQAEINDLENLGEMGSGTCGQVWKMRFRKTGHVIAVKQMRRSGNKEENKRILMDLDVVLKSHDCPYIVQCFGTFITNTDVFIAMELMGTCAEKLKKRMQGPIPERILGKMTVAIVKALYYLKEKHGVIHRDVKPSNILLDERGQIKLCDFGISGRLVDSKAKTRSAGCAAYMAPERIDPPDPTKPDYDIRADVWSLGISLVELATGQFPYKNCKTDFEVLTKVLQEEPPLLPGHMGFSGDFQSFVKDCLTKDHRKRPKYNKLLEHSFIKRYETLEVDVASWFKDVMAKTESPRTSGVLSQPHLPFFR

[31] = Volume of distribution at steady state in dog; format: ADME, Canis lupus familiaris; conditions: in vivo, read-out: Vdss
[32] = Half life in mouse plasma; format: ADME
[33] = Half life in rat plasma; format: ADME
[34] = Half life in monkey plasma; format: ADME, Macaca mulatta; conditions: rhesus monkey
[35] = Half life in dog plasma; format: ADME, Canis lupus familiaris

T3 sequence (P51451 whole entry): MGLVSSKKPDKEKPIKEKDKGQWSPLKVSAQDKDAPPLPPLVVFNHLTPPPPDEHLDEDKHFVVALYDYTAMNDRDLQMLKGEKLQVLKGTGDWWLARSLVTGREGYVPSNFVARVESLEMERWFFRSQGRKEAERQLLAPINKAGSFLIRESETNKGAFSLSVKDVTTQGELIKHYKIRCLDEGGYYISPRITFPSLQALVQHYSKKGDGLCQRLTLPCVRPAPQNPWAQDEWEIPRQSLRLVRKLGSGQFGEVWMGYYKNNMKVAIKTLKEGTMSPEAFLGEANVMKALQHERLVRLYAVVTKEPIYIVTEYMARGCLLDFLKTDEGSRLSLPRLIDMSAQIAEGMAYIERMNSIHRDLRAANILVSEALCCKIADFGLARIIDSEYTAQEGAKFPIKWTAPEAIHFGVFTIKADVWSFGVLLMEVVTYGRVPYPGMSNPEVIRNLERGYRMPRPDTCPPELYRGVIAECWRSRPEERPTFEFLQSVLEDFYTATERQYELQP
Epidermal growth factor receptor, sequence (P00533 whole entry, the tested form may be a part): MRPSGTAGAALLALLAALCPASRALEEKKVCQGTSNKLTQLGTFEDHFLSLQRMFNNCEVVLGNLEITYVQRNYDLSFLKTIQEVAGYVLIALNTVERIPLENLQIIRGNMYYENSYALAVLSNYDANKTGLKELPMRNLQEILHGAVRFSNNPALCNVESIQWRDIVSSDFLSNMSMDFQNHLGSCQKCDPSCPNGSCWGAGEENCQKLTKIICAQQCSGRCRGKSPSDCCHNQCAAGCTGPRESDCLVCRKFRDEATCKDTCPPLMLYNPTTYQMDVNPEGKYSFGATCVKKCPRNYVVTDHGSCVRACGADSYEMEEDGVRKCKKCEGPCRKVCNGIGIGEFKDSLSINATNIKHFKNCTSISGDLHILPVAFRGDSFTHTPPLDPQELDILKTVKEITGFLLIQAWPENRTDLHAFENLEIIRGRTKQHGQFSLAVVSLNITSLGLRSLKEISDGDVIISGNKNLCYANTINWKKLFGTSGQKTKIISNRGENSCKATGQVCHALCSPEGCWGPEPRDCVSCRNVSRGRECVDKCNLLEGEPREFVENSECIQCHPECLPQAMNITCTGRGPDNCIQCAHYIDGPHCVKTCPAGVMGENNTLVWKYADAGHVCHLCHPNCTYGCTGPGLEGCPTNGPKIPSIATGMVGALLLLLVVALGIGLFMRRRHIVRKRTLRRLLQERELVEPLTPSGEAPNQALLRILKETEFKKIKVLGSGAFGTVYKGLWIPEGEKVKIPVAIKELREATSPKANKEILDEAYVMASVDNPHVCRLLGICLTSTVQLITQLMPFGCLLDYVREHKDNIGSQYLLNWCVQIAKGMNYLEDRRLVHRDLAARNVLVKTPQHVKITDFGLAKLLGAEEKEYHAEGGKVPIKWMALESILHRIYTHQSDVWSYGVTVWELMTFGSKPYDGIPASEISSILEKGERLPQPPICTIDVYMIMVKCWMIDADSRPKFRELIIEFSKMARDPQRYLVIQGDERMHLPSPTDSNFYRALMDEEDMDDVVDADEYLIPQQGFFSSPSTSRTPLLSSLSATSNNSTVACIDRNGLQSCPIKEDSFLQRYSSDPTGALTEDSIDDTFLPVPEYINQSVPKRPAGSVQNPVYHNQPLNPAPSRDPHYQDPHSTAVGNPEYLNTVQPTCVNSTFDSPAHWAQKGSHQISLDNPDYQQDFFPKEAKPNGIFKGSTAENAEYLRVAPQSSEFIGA
Receptor tyrosine-protein kinase erbB-2, sequence (P04626 whole entry): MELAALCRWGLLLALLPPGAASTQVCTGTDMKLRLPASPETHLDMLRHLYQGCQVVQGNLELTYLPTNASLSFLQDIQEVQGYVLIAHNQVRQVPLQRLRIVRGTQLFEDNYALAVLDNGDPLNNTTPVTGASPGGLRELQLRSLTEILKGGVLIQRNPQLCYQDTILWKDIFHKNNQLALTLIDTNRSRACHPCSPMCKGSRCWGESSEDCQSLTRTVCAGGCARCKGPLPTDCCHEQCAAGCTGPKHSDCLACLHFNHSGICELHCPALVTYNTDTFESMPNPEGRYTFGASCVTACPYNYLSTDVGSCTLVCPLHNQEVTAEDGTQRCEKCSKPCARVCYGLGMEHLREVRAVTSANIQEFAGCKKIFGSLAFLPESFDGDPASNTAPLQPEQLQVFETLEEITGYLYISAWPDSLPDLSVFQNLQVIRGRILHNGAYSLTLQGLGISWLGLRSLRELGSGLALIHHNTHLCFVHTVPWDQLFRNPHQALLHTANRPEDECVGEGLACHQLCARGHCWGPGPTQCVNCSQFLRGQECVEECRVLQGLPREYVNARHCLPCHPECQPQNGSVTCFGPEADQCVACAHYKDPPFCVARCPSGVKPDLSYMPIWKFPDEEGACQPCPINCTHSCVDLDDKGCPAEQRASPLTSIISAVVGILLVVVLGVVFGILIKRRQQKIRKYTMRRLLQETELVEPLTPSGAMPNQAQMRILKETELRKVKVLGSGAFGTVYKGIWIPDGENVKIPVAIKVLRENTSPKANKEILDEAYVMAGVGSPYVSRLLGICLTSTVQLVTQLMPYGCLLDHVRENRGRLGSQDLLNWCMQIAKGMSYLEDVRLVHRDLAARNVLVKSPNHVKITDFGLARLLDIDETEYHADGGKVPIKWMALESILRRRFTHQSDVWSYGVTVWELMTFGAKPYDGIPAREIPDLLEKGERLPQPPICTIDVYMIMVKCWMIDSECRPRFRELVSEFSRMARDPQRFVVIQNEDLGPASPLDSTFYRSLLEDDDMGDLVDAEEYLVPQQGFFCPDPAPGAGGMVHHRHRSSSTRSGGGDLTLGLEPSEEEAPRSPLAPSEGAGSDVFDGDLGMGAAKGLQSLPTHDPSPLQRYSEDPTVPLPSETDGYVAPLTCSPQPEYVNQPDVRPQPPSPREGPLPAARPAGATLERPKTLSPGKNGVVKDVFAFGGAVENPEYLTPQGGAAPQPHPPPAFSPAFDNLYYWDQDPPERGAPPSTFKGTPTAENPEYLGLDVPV

Compound: C=CC(=O)N1C[C@H](Nc2ncnc3[nH]ccc23)CC[C@@H]1C [RITLECITINIB]
- microsomal CLint [1]: 8 µL/min/mg
- microsomal CLint [2]: < 15 µL/min/mg
- Papp [3]: 15 ×10⁻⁶ cm/s
- half-life at 1 µM [4]: 2.68 h
- Vd [5]: 0.8 L/kg
- Vd [6]: 1.4 L/kg
- Vd [7]: 2.6 L/kg
- CL free [8]: 53 µL/min
- CL free [9]: 14 µL/min
- CL free [10]: 7.6 µL/min
- CL free [11]: 2.1 µL/min
- CL free [12]: 2.8 µL/min
- half-life [13]: 2.68 h
- half-life [14]: 0.617 h
- clearance [15]: 48 mL/min/kg
- clearance [16]: 53 mL/min/kg
- clearance [17]: 42 mL/min/kg
- clearance [18]: 8.6 mL/min/kg
- bioavailability [19]: 62%
- bioavailability [20]: 85%
- bioavailability [21]: 56%
- bioavailability [22]: 109%
- solubility [23]: > 2000 µg/mL
- Ki [24]: 0.131 µM
- Ki [25]: 0.679 µM
- Ki [26]: 32.4 µM
- IC50 [27]: 19 µM
- IC50 [28]: > 50 µM
- IC50 [29]: > 50 µM
- IC50 [30]: > 50 µM
- Vd [31]: 1.1 L/kg
- half-life [32]: 1.3 h
- half-life [33]: 0.3 h
- half-life [34]: 0.7 h
- half-life [35]: 1.1 h
